Test results as given in patent US9283222B2 (priority 2006, dated 2016).

target: Recombinant Human Poly(ADP-Ribose) Polymerase (PARP), PARP-1 (Homo sapiens (Human), UniProt P09874); details: read-out: PARP-1 (Ki)
Sequence (P09874 whole entry): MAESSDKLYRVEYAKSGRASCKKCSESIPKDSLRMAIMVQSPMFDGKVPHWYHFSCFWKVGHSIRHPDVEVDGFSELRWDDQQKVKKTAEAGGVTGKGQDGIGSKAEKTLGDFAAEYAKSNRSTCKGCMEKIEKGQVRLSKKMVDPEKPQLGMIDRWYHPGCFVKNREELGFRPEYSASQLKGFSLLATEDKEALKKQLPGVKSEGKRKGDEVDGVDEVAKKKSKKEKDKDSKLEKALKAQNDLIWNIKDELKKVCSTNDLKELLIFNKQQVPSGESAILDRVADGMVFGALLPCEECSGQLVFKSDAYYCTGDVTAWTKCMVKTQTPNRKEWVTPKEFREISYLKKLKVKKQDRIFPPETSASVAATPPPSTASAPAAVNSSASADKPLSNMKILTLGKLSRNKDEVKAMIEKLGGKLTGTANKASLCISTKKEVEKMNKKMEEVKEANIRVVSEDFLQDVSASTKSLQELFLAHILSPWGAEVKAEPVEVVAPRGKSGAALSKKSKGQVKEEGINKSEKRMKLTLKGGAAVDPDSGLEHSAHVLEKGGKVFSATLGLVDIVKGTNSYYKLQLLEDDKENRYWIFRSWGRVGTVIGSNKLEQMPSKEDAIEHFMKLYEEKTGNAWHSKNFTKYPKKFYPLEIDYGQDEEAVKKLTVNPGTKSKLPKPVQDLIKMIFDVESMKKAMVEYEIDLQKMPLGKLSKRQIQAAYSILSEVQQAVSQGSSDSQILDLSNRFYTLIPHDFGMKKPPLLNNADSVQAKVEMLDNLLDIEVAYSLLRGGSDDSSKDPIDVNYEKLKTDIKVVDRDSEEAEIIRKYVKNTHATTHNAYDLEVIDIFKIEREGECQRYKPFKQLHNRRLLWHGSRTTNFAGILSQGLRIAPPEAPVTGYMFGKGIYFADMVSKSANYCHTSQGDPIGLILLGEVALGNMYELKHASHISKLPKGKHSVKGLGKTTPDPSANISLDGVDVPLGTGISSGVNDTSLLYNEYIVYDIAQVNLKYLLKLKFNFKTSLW

Row | SMILES | Ki
1 | O=C(OCc1ccccc1)N1CCN(C(=O)c2cc(Cc3n[nH]c(=O)c4c3CCCC4)ccc2F)CC1 [Example 543, benzyl 4-{2-fluoro-5-[(4-oxo-3,4,5,6,7,8-hexahydrophthalazin-1-yl)methyl]benzoyl}piperazine-1-carboxylate] | 5 nM

same assay, conditions: read-out: PARP-1 (Ki); Table 1; text calls the values EC50s

Row | SMILES | Ki
2 | O=C(Nc1cc(Cc2n[nH]c(=O)c3c2CCCC3)ccc1F)NC1CCCC1 [Example 540, N-cyclopentyl-N′-{2-fluoro-5-[(4-oxo-3,4,5,6,7,8-hexahydrophthalazin-1-yl)methyl]phenyl}urea] | 204 nM
3 | O=C(Nc1ccc(F)cc1F)Nc1cc(Cc2n[nH]c(=O)c3c2CCCC3)ccc1F [Example 541, N-(2,4-difluorophenyl)-N′-{2-fluoro-5-[(4-oxo-3,4,5,6,7,8-hexahydrophthalazin-1-yl)methyl]phenyl}urea] | 71 nM
4 | CC(C)(C)NC(=O)Nc1cc(Cc2n[nH]c(=O)c3c2CCCC3)ccc1F [Example 542, N-(tert-butyl)-N′-{2-fluoro-5-[(4-oxo-3,4,5,6,7,8-hexahydrophthalazin-1-yl)methyl]phenyl}urea] | 548 nM
5 | O=C(OCc1ccccc1)N1CCCN(C(=O)c2cc(Cc3n[nH]c(=O)c4c3CCCC4)ccc2F)CC1 [Example 544, benzyl 4-{2-fluoro-5-[(4-oxo-3,4,5,6,7,8-hexahydrophthalazin-1-yl)methyl]benzoyl}-1,4-diazepane-1-carboxylate] | 4 nM
6 | O=C(c1cc(Cc2n[nH]c(=O)c3c2NCCC3)ccc1F)N1CCN(c2cccc(F)c2)CC1 [Example 547, 8-(4-fluoro-3-{[4-(3-fluorophenyl)piperazin-1-yl]carbonyl}benzyl)-2,3,4,6-tetrahydropyrido[2,3-d]pyridazin-5(1H)-one] | 2.3 nM
7 | O=C(c1cc(Cc2n[nH]c(=O)c3c2NCCC3)ccc1F)N1CCN(c2ccc(F)cc2)CC1 [Example 548, 8-(4-fluoro-3-{[4-(4-fluorophenyl)piperazin-1-yl]carbonyl}benzyl)-2,3,4,6-tetrahydropyrido[2,3-d]pyridazin-5(1H)-one] | 2 nM
8 | O=C(c1cc(Cc2n[nH]c(=O)c3c2NCCC3)ccc1F)N1CCN(c2ccccc2F)CC1 [Example 549, 8-(4-fluoro-3-{[4-(2-fluorophenyl)piperazin-1-yl]carbonyl}benzyl)-2,3,4,6-tetrahydropyrido[2,3-d]pyridazin-5(1H)-one] | 1 nM
9 | O=C(c1ccco1)N1CCN(C(=O)c2cc(Cc3n[nH]c(=O)c4c3NCCC4)ccc2F)CC1 [Example 553, 8-(4-fluoro-3-{[4-(2-furoyl)piperazin-1-yl]carbonyl}benzyl)-2,3,4,6-tetrahydropyrido[2,3-d]pyridazin-5(1H)-one] | 0.8 nM
10 | O=C(c1cc(Cc2n[nH]c(=O)c3c2NCCC3)ccc1F)N1CCN(c2ccccc2Cl)CC1 [Example 554, 8-(3-{[4-(2-chlorophenyl)piperazin-1-yl]carbonyl}-4-fluorobenzyl)-2,3,4,6-tetrahydropyrido[2,3-d]pyridazin-5(1H)-one] | 2.1 nM
11 | CCN(CC)C(=O)N1CCN(C(=O)c2cc(Cc3n[nH]c(=O)c4c3NCCC4)ccc2F)CC1 [Example 557, N,N-diethyl-4-{2-fluoro-5-[(5-oxo-1,2,3,4,5,6-hexahydropyrido[2,3-d]pyridazin-8-yl)methyl]benzoyl}piperazine-1-carboxamide] | 1.1 nM
12 | CN(C)C(=O)CN1CCN(C(=O)c2cc(Cc3n[nH]c(=O)c4c3NCCC4)ccc2F)CC1 [Example 560, 2-(4-{2-fluoro-5-[(5-oxo-1,2,3,4,5,6-hexahydropyrido[2,3-d]pyridazin-8-yl)methyl]benzoyl}piperazin-1-yl)-N,N-dimethylacetamide] | 2 nM
13 | O=C(c1cc(Cc2n[nH]c(=O)c3c2NCCC3)ccc1F)N1CCN(CCOc2ccccc2)CC1 [Example 561, 8-(4-fluoro-3-{[4-(2-phenoxyethyl)piperazin-1-yl]carbonyl}benzyl)-2,3,4,6-tetrahydropyrido[2,3-d]pyridazin-5(1H)-one] | 3 nM
14 | O=C(c1cc(Cc2n[nH]c(=O)c3c2NCCC3)ccc1F)N1CCN(S(=O)(=O)c2ccccc2)CC1 [Example 562, 8-(4-fluoro-3-{[4-(phenylsulfonyl)piperazin-1-yl]carbonyl}benzyl)-2,3,4,6-tetrahydropyrido[2,3-d]pyridazin-5(1H)-one] | 0.9 nM
15 | CC(C)C(=O)N1CCN(C(=O)c2cc(Cc3n[nH]c(=O)c4c3NCCC4)ccc2F)CC1 [Example 565, 8-{4-fluoro-3-[(4-isobutyrylpiperazin-1-yl)carbonyl]benzyl}-2,3,4,6-tetrahydropyrido[2,3-d]pyridazin-5(1H)-one] | 1.4 nM
16 | O=C(c1cc(Cc2n[nH]c(=O)c3c2NCCC3)ccc1F)N1CCN(CCN2CCOCC2)CC1 [Example 566, 8-(4-fluoro-3-{[4-(2-morpholin-4-ylethyl)piperazin-1-yl]carbonyl}benzyl)-2,3,4,6-tetrahydropyrido[2,3-d]pyridazin-5(1H)-one] | 4 nM
17 | O=C(c1cc(Cc2n[nH]c(=O)c3c2NCCC3)ccc1F)N1CCN(C(=O)C2CCCCC2)CC1 [Example 568, 8-(3-{[4-(cyclohexylcarbonyl)piperazin-1-yl]carbonyl}-4-fluorobenzyl)-2,3,4,6-tetrahydropyrido[2,3-d]pyridazin-5(1H)-one] | 1.1 nM
18 | O=C(c1cc(Cc2n[nH]c(=O)c3c2NCCC3)ccc1F)N1CCN(C(=O)C2CCCO2)CC1 (stereo not shown) [Example 569, 8-(4-fluoro-3-{[4-(tetrahydrofuran-2-ylcarbonyl)piperazin-1-yl]carbonyl}benzyl)-2,3,4,6-tetrahydropyrido[2,3-d]pyridazin-5(1H)-one] | 1.2 nM

Row | SMILES | Ki
19 | O=C(c1cc(Cc2n[nH]c(=O)c3c2NCCC3)ccc1F)N1CCN(CCN2CCCCC2)CC1 [Example 570, 8-(4-fluoro-3-{[4-(2-piperidin-1-ylethyl)piperazin-1-yl]carbonyl}benzyl)-2,3,4,6-tetrahydropyrido[2,3-d]pyridazin-5(1H)-one] | 8 nM
20 | O=C(c1cc(Cc2n[nH]c(=O)c3c2CCCC3)ccc1F)N1CCN(CCN2CCOCC2)CC1 [Example 571, 4-(4-fluoro-3-{[4-(2-morpholin-4-ylethyl)piperazin-1-yl]carbonyl}benzyl)-5,6,7,8-tetrahydrophthalazin-1(2H)-one] | 4 nM
21 | O=C(c1cc(Cc2n[nH]c(=O)c3c2NCCC3)ccc1F)N1CCC(O)CC1 [Example 572, 8-{4-fluoro-3-[(4-hydroxypiperidin-1-yl)carbonyl]benzyl}-2,3,4,6-tetrahydropyrido[2,3-d]pyridazin-5(1H)-one] | 3 nM
22 | Cc1cncc(N2CCN(C(=O)c3cc(Cc4n[nH]c(=O)c5c4NCCC5)ccc3F)CC2)n1 [Example 573, 8-(4-fluoro-3-{[4-(6-methylpyrazin-2-yl)piperazin-1-yl]carbonyl}benzyl)-2,3,4,6-tetrahydropyrido[2,3-d]pyridazin-5(1H)-one] | 0.9 nM
23 | O=C(c1cc(Cc2n[nH]c(=O)c3c2CCCC3)ccc1F)N1CCN(S(=O)(=O)c2ccccc2)CC1 [Example 574, 4-(4-fluoro-3-{[4-(phenylsulfonyl)piperazin-1-yl]carbonyl}benzyl)-5,6,7,8-tetrahydrophthalazin-1(2H)-one] | 1.3 nM
24 | O=C(c1cc(Cc2n[nH]c(=O)c3c2CCCC3)ccc1F)N1CCN(C2CCCC2)CC1 [Example 575, 4-{3-[(4-cyclopentylpiperazin-1-yl)carbonyl]-4-fluorobenzyl}-5,6,7,8-tetrahydrophthalazin-1(2H)-one] | 2 nM
25 | O=C(c1cc(Cc2n[nH]c(=O)c3c2CCCC3)ccc1F)N1CCN(C(=O)N2CCCC2)CC1 [Example 576, 4-(4-fluoro-3-{[4-(pyrrolidine-1-ylcarbonyl)piperazin-1-yl]carbonyl}benzyl)-5,6,7,8-tetrahydrophthalazin-1(2H)-one] | 0.9 nM
26 | O=C(c1cc(Cc2n[nH]c(=O)c3c2CCCC3)ccc1F)N1CCN(CCOc2ccccc2)CC1 [Example 577, 4-(4-fluoro-3-{[4-(2-phenoxyethyl)piperazin-1-yl]carbonyl}benzyl)-5,6,7,8-tetrahydrophthalazin-1(2H)-one] | 3 nM
27 | CN1CCN(CCNC(=O)c2cc(Cc3n[nH]c(=O)c4c3CCCC4)ccc2F)CC1 [Example 578, 2-fluoro-N-[2-(4-methylpiperazin-1-yl)ethyl]-5-[(4-oxo-3,4,5,6,7,8-hexahydrophthalazin-1-yl)methyl]benzamide] | 1.1 nM
28 | CC(C)C(=O)N1CCN(C(=O)c2cc(Cc3n[nH]c(=O)c4c3CCCC4)ccc2F)CC1 [Example 579, 4-{4-fluoro-3-[(4-isobutyrylpiperazin-1-yl)carbonyl]benzyl}-5,6,7,8-tetrahydrophthalazin-1(2H)-one] | 1 nM
29 | CCN1CCN(C(=O)c2cc(Cc3n[nH]c(=O)c4c3CCCC4)ccc2F)CC1 [Example 580, 4-{3-[(4-ethylpiperazin-1-yl)carbonyl]-4-fluorobenzyl}-5,6,7,8-tetrahydrophthalazin-1(2H)-one] | 1.8 nM
30 | N[C@H]1CC(=O)N(c2cc(Cc3n[nH]c(=O)c4c3CCCC4)ccc2F)C1=O [Example 583, (3S)-3-amino-1-{2-fluoro-5-[(4-oxo-3,4,5,6,7,8-hexahydrophthalazin-1-yl)methyl]phenyl}pyrrolidine-2,5-dione] | 2.3 nM
31 | CN1CCN(C(=O)Nc2cc(Cc3n[nH]c(=O)c4c3CCCC4)ccc2F)CC1 [Example 584, N-{2-fluoro-5-[(4-oxo-3,4,5,6,7,8-hexahydrophthalazin-1-yl)methyl]phenyl}-4-methylpiperazine-1-carboxamide] | 68 nM
32 | CCC(=O)N1CCN(C(=O)c2cc(Cc3n[nH]c(=O)c4c3CCCC4)ccc2F)CC1 [Example 585, 4-{4-fluoro-3-[(4-propionylpiperazin-1-yl)carbonyl]benzyl}-5,6,7,8-tetrahydrophthalazin-1(2H)-one] | 1.3 nM
33 | CCS(=O)(=O)N1CCN(C(=O)c2cc(Cc3n[nH]c(=O)c4c3CCCC4)ccc2F)CC1 [Example 586, 4-(3-{[4-(ethylsulfonyl)piperazin-1-yl]carbonyl}-4-fluorobenzyl)-5,6,7,8-tetrahydrophthalazin-1(2H)-one] | 1.1 nM
34 | CC(C)(C)C(=O)N1CCN(C(=O)c2cc(Cc3n[nH]c(=O)c4c3CCCC4)ccc2F)CC1 [Example 587, 4-(3-[4-(2,2-dimethylpropanoyl)piperazin-1-yl]carbonyl-4-fluorobenzyl)-5,6,7,8-tetrahydrophthalazin-1(2H)-one] | 1 nM
